Measurements taken from ChEMBL document CHEMBL1149874 (Bioorg Med Chem, 2008).
pIC50, pKi: −log10 of the molar value. Activity calls are given as the source filed them. The rule behind the calls is not given here. Residues, ends and D or L forms follow the SMILES beside them.

What was measured:
[1] = biological target: T1, Mu-type opioid receptor (Homo sapiens, UniProt P35372); assay: Increase in internalization of mu opioid receptor in human SH-SY5Y cells; format: cell-based
[2] = biological target: T1, Mu-type opioid receptor; assay: Agonist activity at mu opioid receptor assessed as inhibition of forskolin-induced cAMP production in human SH-SY5Y cells pretreated for 24 hrs with DMEM medium after 15 mins; format: functional, cell-based
[3] = biological target: T1, Mu-type opioid receptor; assay: Displacement of [3H]DAMGO from mu opioid receptor in human SH-SY5Y cells; format: cell-based
[4] = biological target: T1, Mu-type opioid receptor; assay: Agonist activity at mu opioid receptor assessed as inhibition of forskolin-induced cAMP production in human SH-SY5Y cells pretreated for 24 hrs with excess ligand after 15 mins; format: functional, cell-based
[5] = biological target: T1, Mu-type opioid receptor; assay: Decrease in internalization of mu opioid receptor in human SH-SY5Y cells; format: cell-based

T1 sequence (P35372 whole entry): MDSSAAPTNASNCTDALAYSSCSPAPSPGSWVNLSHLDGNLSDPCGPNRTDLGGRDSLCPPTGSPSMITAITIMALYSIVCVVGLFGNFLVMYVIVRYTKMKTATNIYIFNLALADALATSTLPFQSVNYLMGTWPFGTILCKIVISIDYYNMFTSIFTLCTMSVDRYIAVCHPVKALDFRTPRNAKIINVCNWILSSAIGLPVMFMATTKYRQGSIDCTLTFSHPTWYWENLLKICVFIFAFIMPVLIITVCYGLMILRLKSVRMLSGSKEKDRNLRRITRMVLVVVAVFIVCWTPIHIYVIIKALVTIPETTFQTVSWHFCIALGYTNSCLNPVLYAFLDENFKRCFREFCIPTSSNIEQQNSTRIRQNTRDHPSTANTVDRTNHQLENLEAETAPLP

Compound	Activity [1] [%]	pIC50 [2]	pKi [3]	pIC50 [4]	Activity [5]
H-YGWFL-NH2	40	6.90	6.95	6.88	–
H-YGGWL-NH2	22	7.56	7.92	7.31	–
C[C@H](NC(=O)[C@@H]1CCCN1C(=O)[C@@H](N)Cc1ccc(O)cc1)C(=O)N[C@@H](Cc1ccccc1)C(N)=O (H-YPAF-NH2)	–	–	6.65	–	Active
C[C@H](NC(=O)[C@@H](N)Cc1ccc(O)cc1)C(=O)N[C@@H](Cc1c[nH]c2ccccc12)C(=O)N[C@@H](Cc1ccccc1)C(N)=O (H-YAWF-NH2)	–	–	5.50	–	–
C[C@H](NC(=O)[C@H](C)NC(=O)[C@@H]1CCCN1C(=O)[C@@H](N)Cc1ccc(O)cc1)C(N)=O (H-YPAA-NH2)	–	–	6.15	–	Active
C[C@H](NC(=O)[C@H](Cc1c[nH]c2ccccc12)NC(=O)[C@@H]1CCCN1C(=O)[C@@H](N)Cc1ccc(O)cc1)C(N)=O (H-YPWA-NH2)	–	–	7.14	–	Active
